Measurements as given in publication PMC9774391 (ACS Omega, 2022).

Legend:
MAO-A = target: T1, MAO-A (Homo sapiens, UniProt P21397); experiment: In vitro MAO-A inhibition assay (fluorometric); format: biochemical; settings: for inhibition at 1000 µM: 10^–3 M; for inhibition at 100 µM: 10^–4 M
T1 sequence (P21397 1-527): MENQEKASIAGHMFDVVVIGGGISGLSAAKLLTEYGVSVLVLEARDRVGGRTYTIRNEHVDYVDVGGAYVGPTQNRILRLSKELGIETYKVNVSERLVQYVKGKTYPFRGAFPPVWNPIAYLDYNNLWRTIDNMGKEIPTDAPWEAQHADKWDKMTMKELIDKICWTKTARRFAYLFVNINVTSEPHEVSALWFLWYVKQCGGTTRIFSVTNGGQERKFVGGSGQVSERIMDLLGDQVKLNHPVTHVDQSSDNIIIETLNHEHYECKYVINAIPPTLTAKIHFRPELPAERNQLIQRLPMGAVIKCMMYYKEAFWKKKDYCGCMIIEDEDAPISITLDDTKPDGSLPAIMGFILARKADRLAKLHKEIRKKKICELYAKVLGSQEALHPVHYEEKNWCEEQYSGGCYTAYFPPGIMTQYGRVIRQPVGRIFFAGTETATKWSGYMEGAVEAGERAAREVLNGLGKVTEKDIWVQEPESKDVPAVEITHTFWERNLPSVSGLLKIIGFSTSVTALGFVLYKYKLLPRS

MAO-B = target: T2, MAO-B (Homo sapiens, UniProt P27338); experiment: In vitro MAO-B inhibition assay (fluorometric); format: biochemical; settings: for inhibition at 1000 µM: 10^–3 M; for inhibition at 100 µM: 10^–4 M
T2 sequence (P27338 1-520): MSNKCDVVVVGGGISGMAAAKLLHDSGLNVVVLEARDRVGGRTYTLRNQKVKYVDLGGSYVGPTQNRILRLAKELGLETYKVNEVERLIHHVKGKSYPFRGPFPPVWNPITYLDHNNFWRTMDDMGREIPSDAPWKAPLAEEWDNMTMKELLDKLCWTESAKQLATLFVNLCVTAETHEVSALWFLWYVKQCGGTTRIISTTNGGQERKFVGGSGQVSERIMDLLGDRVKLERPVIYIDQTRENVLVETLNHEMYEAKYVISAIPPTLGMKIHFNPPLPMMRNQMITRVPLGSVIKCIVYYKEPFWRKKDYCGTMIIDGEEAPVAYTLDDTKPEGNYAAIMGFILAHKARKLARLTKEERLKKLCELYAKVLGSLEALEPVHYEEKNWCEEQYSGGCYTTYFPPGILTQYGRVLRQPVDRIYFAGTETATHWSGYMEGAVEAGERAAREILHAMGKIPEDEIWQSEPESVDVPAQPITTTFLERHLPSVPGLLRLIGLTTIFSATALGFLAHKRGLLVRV

BChE = BChE (Homo sapiens, UniProt P06276); experiment: biochemical; settings: for inhibition at 1000 µM: 10^–3 M; for inhibition at 100 µM: 10^–4 M
Description: (§1) According to the modified Ellman approach outlined in our team’s earlier work, the AChE and BChE inhibitory activities of the obtained compounds were evaluated.[18]−[21]

AChE = AChE (Homo sapiens, UniProt P22303); experiment: biochemical; settings: for inhibition at 1000 µM: 10^–3 M; for inhibition at 100 µM: 10^–4 M; for inhibition at 10 µM: 10^–5 M; for inhibition at 1 µM: 10^–6 M; for inhibition at 0.1 µM: 10^–7 M; for inhibition at 0.01 µM: 10^–8 M; for inhibition at 0.001 µM: 10^–9 M
Description: as §1

Cytotoxicity test (MTT) = format: cell-based; settings: NIH/3T3 mouse embryonic fibroblast cells (ATCC CRL-1658), NIH/3T3 mouse fibroblast healthy cell line
Description: The NIH/3T3 cells were incubated according to the manufacturer’s recommendations. In 96-well plates, NIH/3T3 cells were seeded at a density of 1 × 10^4 cells per well. The MTT test was conducted in line with the previously mentioned standards.[19],[22],[23],[28],[30]

Sequence of BChE (P06276 29-602): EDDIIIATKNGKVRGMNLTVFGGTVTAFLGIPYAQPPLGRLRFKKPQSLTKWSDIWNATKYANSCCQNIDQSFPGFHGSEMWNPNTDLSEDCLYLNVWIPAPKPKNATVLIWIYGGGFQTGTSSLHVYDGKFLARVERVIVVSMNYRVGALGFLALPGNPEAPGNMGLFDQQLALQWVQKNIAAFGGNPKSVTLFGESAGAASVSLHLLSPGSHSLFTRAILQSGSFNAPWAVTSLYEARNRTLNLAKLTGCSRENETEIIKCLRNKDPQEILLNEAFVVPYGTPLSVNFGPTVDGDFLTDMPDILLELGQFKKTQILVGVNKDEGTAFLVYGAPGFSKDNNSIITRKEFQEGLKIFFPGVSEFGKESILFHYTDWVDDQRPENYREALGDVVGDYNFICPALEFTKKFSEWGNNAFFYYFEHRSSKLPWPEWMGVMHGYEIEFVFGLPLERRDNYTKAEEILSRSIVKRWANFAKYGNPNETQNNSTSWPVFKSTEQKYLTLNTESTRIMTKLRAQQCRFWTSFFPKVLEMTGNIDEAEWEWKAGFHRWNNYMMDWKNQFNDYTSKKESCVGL
Sequence of AChE (P22303 32-614): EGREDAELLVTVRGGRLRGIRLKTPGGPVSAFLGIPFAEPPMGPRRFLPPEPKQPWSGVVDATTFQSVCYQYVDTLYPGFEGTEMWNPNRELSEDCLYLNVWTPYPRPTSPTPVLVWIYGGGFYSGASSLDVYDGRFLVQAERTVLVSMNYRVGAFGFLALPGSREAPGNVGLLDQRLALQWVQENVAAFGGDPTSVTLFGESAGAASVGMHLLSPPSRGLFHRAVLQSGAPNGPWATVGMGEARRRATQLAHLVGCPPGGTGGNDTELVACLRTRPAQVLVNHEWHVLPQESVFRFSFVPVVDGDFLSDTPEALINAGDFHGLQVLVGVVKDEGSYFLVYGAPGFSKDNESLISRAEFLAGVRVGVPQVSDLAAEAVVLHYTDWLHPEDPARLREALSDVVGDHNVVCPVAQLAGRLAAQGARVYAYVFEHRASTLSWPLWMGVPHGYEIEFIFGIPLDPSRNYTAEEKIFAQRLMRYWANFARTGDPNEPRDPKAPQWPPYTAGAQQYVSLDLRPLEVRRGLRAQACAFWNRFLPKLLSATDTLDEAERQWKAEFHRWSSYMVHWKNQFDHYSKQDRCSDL

Structure (SMILES): C#CCN1CCN(CC(=O)Nc2ccc(/C=C3\Cc4cc(OC)c(OC)cc4C3=O)cc2)CC1 [D12]
- inhibition at 1000 µM (MAO-A): 95.76 ± 0.49%
- inhibition at 100 µM (MAO-A): 45.1 ± 0.466%
- inhibition at 1000 µM (MAO-B): 96.2 ± 1.34%
- inhibition at 100 µM (MAO-B): 49 ± 0.623%
- inhibition at 1000 µM (BChE): 98.4 ± 1.79%
- inhibition at 100 µM (BChE): 48.8 ± 0.529%
- inhibition at 1000 µM (AChE): 96.5 ± 2.7%
- inhibition at 100 µM (AChE): 49.7 ± 0.988%

Structure (SMILES): COCCN1CCN(CC(=O)Nc2ccc(/C=C3\Cc4cc(OC)ccc4C3=O)cc2)CC1 [D13]
- inhibition at 1000 µM (MAO-A): 82.7 ± 1.21%
- inhibition at 100 µM (MAO-A): 35.5 ± 0.623%
- inhibition at 1000 µM (MAO-B): 84.6 ± 1.11%
- inhibition at 100 µM (MAO-B): 44.6 ± 0.557%
- inhibition at 1000 µM (BChE): 90.1 ± 1.46%
- inhibition at 100 µM (BChE): 23.9 ± 0.934%
- inhibition at 1000 µM (AChE): 71.2 ± 1.07%
- inhibition at 100 µM (AChE): 43 ± 0.998%

Structure (SMILES): COCCN1CCN(CC(=O)Nc2ccc(/C=C3\Cc4ccc(OC)cc4C3=O)cc2)CC1 [D14]
- inhibition at 1000 µM (MAO-A): 48.5 ± 0.749%
- inhibition at 100 µM (MAO-A): 27.95 ± 0.243%
- inhibition at 1000 µM (MAO-B): 69 ± 0.847%
- inhibition at 100 µM (MAO-B): 39.3 ± 0.652%
- inhibition at 1000 µM (BChE): 73.7 ± 1.51%
- inhibition at 100 µM (BChE): 33 ± 0.721%
- inhibition at 1000 µM (AChE): 44.2 ± 0.999%
- inhibition at 100 µM (AChE): 36.3 ± 0.664%

Structure (SMILES): COCCN1CCN(CC(=O)Nc2ccc(/C=C3\Cc4cc(OC)c(OC)cc4C3=O)cc2)CC1 [D15]
- inhibition at 1000 µM (MAO-A): 70.52 ± 0.536%
- inhibition at 100 µM (MAO-A): 20.3 ± 0.412%
- inhibition at 1000 µM (MAO-B): 80.2 ± 1.46%
- inhibition at 100 µM (MAO-B): 40.1 ± 0.508%
- inhibition at 1000 µM (BChE): 94.6 ± 1.6%
- inhibition at 100 µM (BChE): 43.5 ± 0.966%
- inhibition at 1000 µM (AChE): 91.6 ± 2.56%
- inhibition at 100 µM (AChE): 43.4 ± 0.877%

Structure (SMILES): COc1ccc2c(c1)C/C(=C\c1ccc(NC(=O)CN3CCN(CCO)CC3)cc1)C2=O [D16]
- inhibition at 1000 µM (MAO-A): 65.8 ± 0.779%
- inhibition at 100 µM (MAO-A): 22 ± 0.233%
- inhibition at 1000 µM (MAO-B): 75.6 ± 1.1%
- inhibition at 100 µM (MAO-B): 42.9 ± 0.629%
- inhibition at 1000 µM (BChE): 87.63 ± 0.618%
- inhibition at 100 µM (BChE): 23.6 ± 0.448%
- inhibition at 1000 µM (AChE): 88 ± 1.09%
- inhibition at 100 µM (AChE): 42.6 ± 1.85%

Structure (SMILES): COc1ccc2c(c1)C(=O)/C(=C/c1ccc(NC(=O)CN3CCN(CCO)CC3)cc1)C2 [D17]
- inhibition at 1000 µM (MAO-A): 82.45 ± 0.529%
- inhibition at 100 µM (MAO-A): 34.4 ± 0.508%
- inhibition at 1000 µM (MAO-B): 84.6 ± 1.04%
- inhibition at 100 µM (MAO-B): 45.4 ± 0.669%
- inhibition at 1000 µM (BChE): 75.532 ± 0.061%
- inhibition at 100 µM (BChE): 21.1 ± 0.804%
- inhibition at 1000 µM (AChE): 73.7 ± 1.06%
- inhibition at 100 µM (AChE): 48.1 ± 0.669%

Structure (SMILES): COc1cc2c(cc1OC)C(=O)/C(=C/c1ccc(NC(=O)CN3CCN(CCO)CC3)cc1)C2 [D18]
- inhibition at 1000 µM (MAO-A): 63.8 ± 0.683%
- inhibition at 100 µM (MAO-A): 28.39 ± 0.097%
- inhibition at 1000 µM (MAO-B): 75.6 ± 1.2%
- inhibition at 100 µM (MAO-B): 47.34 ± 0.457%
- inhibition at 1000 µM (BChE): 99.21 ± 0.887%
- inhibition at 100 µM (BChE): 41.8 ± 0.766%
- inhibition at 1000 µM (AChE): 94.7 ± 1.97%
- inhibition at 100 µM (AChE): 45.3 ± 1.01%

Structure (SMILES): COc1ccc2c(c1)C/C(=C\c1ccc(NC(=O)CN3CCN(CCCN(C)C)CC3)cc1)C2=O [D25]
- inhibition at 1000 µM (MAO-A): 80.38 ± 0.646%
- inhibition at 100 µM (MAO-A): 43.1 ± 0.646%
- IC50 (Cytotoxicity test (MTT)): 13.8 ± 0.369 µM
- inhibition at 1000 µM (MAO-B): 79 ± 1.31%
- inhibition at 100 µM (MAO-B): 40.1 ± 0.63%
- inhibition at 1000 µM (BChE): 95.7 ± 2.13%
- inhibition at 100 µM (BChE): 32 ± 0.667%
- IC50 (AChE): 0.183 ± 0.0074 µM
- inhibition at 1000 µM (AChE): 92.6 ± 1.62%
- inhibition at 100 µM (AChE): 88.7 ± 1.19%
- inhibition at 10 µM (AChE): 71.1 ± 1.01%
- inhibition at 1 µM (AChE): 58.9 ± 0.952%
- inhibition at 0.1 µM (AChE): 43.2 ± 0.548%
- inhibition at 0.01 µM (AChE): 35.3 ± 0.417%
- inhibition at 0.001 µM (AChE): 23.4 ± 0.389%

Structure (SMILES): COc1ccc2c(c1)C(=O)/C(=C/c1ccc(NC(=O)CN3CCN(CCCN(C)C)CC3)cc1)C2 [D26]
- inhibition at 1000 µM (MAO-A): 95.12 ± 0.828%
- inhibition at 100 µM (MAO-A): 44.3 ± 0.914%
- IC50 (Cytotoxicity test (MTT)): 21.8 ± 0.556 µM
- inhibition at 1000 µM (MAO-B): 94.3 ± 0.997%
- inhibition at 100 µM (MAO-B): 41.3 ± 0.874%
- inhibition at 1000 µM (BChE): 56.2 ± 0.826%
- inhibition at 100 µM (BChE): 31.1 ± 0.415%
- IC50 (AChE): 0.176 ± 0.0062 µM
- inhibition at 1000 µM (AChE): 93.3 ± 1.5%
- inhibition at 100 µM (AChE): 80.5 ± 1.21%
- inhibition at 10 µM (AChE): 78.1 ± 1.02%
- inhibition at 1 µM (AChE): 60.6 ± 0.974%
- inhibition at 0.1 µM (AChE): 40.3 ± 0.598%
- inhibition at 0.01 µM (AChE): 35.6 ± 0.758%
- inhibition at 0.001 µM (AChE): 24.5 ± 0.622%

Structure (SMILES): C#CCN(C)CC(=O)Nc1ccc(/C=C2\Cc3cc(OC)c(OC)cc3C2=O)cc1 [D33]
- inhibition at 1000 µM (MAO-A): 84.3 ± 1.29%
- inhibition at 100 µM (MAO-A): 29.9 ± 0.552%
- inhibition at 1000 µM (MAO-B): 82.1 ± 1.19%
- inhibition at 100 µM (MAO-B): 39.3 ± 0.665%
- inhibition at 1000 µM (BChE): 99 ± 1.75%
- inhibition at 100 µM (BChE): 46.6 ± 0.845%
- inhibition at 1000 µM (AChE): 52.4 ± 1.24%
- inhibition at 100 µM (AChE): 32 ± 0.462%

Structure (SMILES): CCN(CC)CCN(CC)CC(=O)Nc1ccc(/C=C2\Cc3cc(OC)c(OC)cc3C2=O)cc1 [D42]
- inhibition at 1000 µM (MAO-A): 97.71 ± 0.411%
- inhibition at 100 µM (MAO-A): 40.2 ± 0.736%
- inhibition at 1000 µM (MAO-B): 95.2 ± 1.62%
- inhibition at 100 µM (MAO-B): 40.2 ± 0.824%
- inhibition at 1000 µM (BChE): 99.4 ± 1.29%
- inhibition at 100 µM (BChE): 45.91 ± 0.206%
- inhibition at 1000 µM (AChE): 99.8 ± 2.01%
- inhibition at 100 µM (AChE): 44.2 ± 0.71%
